Assay results published in patent publication US10525139B2, “Folate-conjugated molecules for delivery of toxic small molecule inhibitors to cancer cells and methods of use” (priority 2014, dated 2020).
Entries after “also recorded” stand apart in the source; their conditions may differ.

Columns and labels:
[1] = LCMS analysis of cell lysate and media; format: in vitro ADME; details: 24 h treatment with FT
Procedure: In order to validate the delivery of the Thap-OH, LCMS analysis of the cell lysate and the media was used to detect the presence of both Folate-Thap (FT) and Thap-OH. […] To directly visualize the folate delivery of a small molecule, folic acid derivatives with appended fluorophores were designed. Both Folate-FITC, suitable for flow cytometry studies, and Folate-TMARA, suitable for high-throughput fluorescence plate readers, were evaluated in vitro to determine the delivery mechanism.

NOTCH1 [2] = assay: NOTCH1 processing and activation by western blot (FL-N1, TM-N1, ICN1); format: cell-based, human; details: 24 h
Excerpt: (§1) We previously described that the SERCA inhibitors thapsigargin and cyclopiazonic acid impair NOTCH1 maturation leading to an accumulation of full-length, unprocessed polypeptides in the endoplasmic reticulum/Golgi subcellular compartment. An immediate consequence of SERCA inhibition is a decrement in NOTCH1 protein display on the surface of T-ALL cells. […] To further support the hypothesis that Thap-OH impairs mutant NOTCH1 maturation, we evaluated levels of full-length, transmembrane and activated NOTCH1 (ICN1) by WB. Lysates from T-ALL cell lines treated with 1 μM Thap-OH were immunoblotted with an antibody specific for the cytoplasmic portion of NOTCH1 that recognizes both unprocessed NOTCH1 (FL-N1) (˜270 kDa) and the furin-processed transmembrane subunit (TM-N1) (˜110 kDa).
Both Folate-Thap (JQ-FT) and Thap-OH were tested in T-ALL cell lines with 24 h treatment. […] Lysates were prepared after treatment with indicated doses of thapsigargin, JQ-FT or Thap-OH for 24 hr. The blot shown was stained with an antibody against the C-terminus of NOTCH1 that recognizes both the furin-processed NOTCH1 transmembrane subunit (TM) and the unprocessed NOTCH1 precursor (FL) (FIG. 2A). GAPDH was used as a loading control. Western blots were stained with antibodies specific for γ-secretase-cleaved NOTCH 1 ([…], Cell Signaling, Beverly, Mass., USA), or the C-terminus of NOTCH1 (SC-6014 (C-20) Santa Cruz Biotechnology, Santa Cruz, Calif., USA). Control stains were carried out with antibodies specific for GAPDH (137179, Santa Cruz Biotechnology). Blots were developed with anti-rabbit-HRP (NA9340V, Amersham, Pittsburgh, Pa., USA) or anti-mouse-HRP (NA9340V or NA9310V, Amersham). Staining was quantified using ImageQuant TI V 7.0 (GE Health Care, Piscataway, N.J., USA).

NOTCH1 [3] = assay: NOTCH1 cell surface staining by flow cytometry; format: cell-based, human; details: T-ALL cells; for NOTCH1 expression on the cell surface: 24 hours
Excerpt: as §1
(§2) The NOTCH loss was measured via flow cytometry. […] The recapitulation of the thapsigargin effect by JQ-FT is hypothesized to be due to the delivery strategy introduced by folate. […] Here cell growth was assessed using the Promega Cell-Titer Glo ATP-based assay (Promega, Madison, Wis., USA). Luminescence was measured using a Fluostar Omega instrument (BMG-labtech, Ortenberg, Germany).

NOTCH1 target genes = assay: NOTCH1 target gene expression by RT-PCR in T-ALL cell lines; format: cell-based, human; details: T-ALL cells (ALL/SIL, DND41), 24 hours
Procedure: Errors bars denote mean±SD of 4 replicates. […] The blot was stained with an antibody against the C-terminus of NOTCH1 that recognizes both the furin-processed NOTCH1 transmembrane subunit (TM) and the unprocessed NOTCH1 precursor (FL). The immunoblot was also stained with anti-ICN1 antibody. GAPDH was used as a loading control. […] Error bars indicate the mean±SD of 4 replicates. Data were analyzed using the ΔΔCT method and plotted as a percentage relative to the control gene RPL13A. Statistical significance among groups for treated vs. vehicle (DMSO) samples (***P≤0.0001) was determined by one-way ANOVA with Bonferroni's correction for multiple comparison testing. […] The blot was stained with an antibody against the C-terminus of NOTCH1 (N1) that recognizes both the furin-processed NOTCH1 transmembrane subunit (TM). GAPDH was used as a loading control. […] Cells were probed with an anti-NOTCH1 antibody (green) and nuclei were counterstained with DAPI. […] Error bars indicate the mean±SD of 4 replicates. Data were analyzed using the ΔΔCT method and plotted as a percentage relative to the control gene RPL13A. Statistical significance (***P≤0.001. ****P≤0.0001) for treated vs. vehicle (DMSO) was determined by one-way ANOVA with Bonferroni's correction for multiple comparison testing. […]

T-ALL cell lines = assay: T-ALL cell viability / growth (ATP content, Cell-Titer Glo); format: cell-based, human; details: for cell growth / proliferation: T-ALL cell lines, 10 μM
Procedure: Thus, cell lines carrying NOTCH1 alleles with HD domain, mutations were more sensitive to Thap-OH than cells with WT NOTCH1 alleles.
As a further test of the idea that JQ-FT acts by preventing NOTCH1 activation in a manner similar to thapsigargin, the NOTCH1-dependent T-ALL cell lines RPMI-8402 were transduced with empty MigRI vector or with ICN1, which lies downstream of the γ-secretase cleavage step in Notch activation. Viral supernatant production and retroviral infections were performed as described for MigRI retroviral vectors (Aster, J. C., et al. “Essential roles for ankyrin repeat and transactivation domains in induction of T-cell leukemia by NOTCH1.” Mol. Cell. Biol. 2000; 20:7505-7515). Transduction efficiency for MigRI was monitored by assessing GFP expression with a FACScan flow cytometer (BD, Franklin Lakes, N.J., USA) (Aster et al., Mol. Cell. Biol. 2000; 20:7505-7515). After viral infection, GFP-positive cells were sorted by flow cytometry with a FACSAria II (BD, Franklin Lakes, N.J., USA). […] Therefore, JQ-FT can recapitulate the Thapsigargin effect with the delivery mechanism of folate.
as §2
The effects of JQ-FT in a panel of T-ALL cell lines that contain activating mutations in the HD domain of NOTCH1 and/or protein stabilizing deletions within the PEST degradation domain.

C/C=C(/C)C(=O)O[C@H]1C(C)=C2C([C@@H]1OC(=O)CCCCCCC)[C@@](C)(OC(C)=O)C[C@H](OC(=O)CC[C@H](NC(=O)c1ccc(NCc3cnc4nc(N)[nH]c(=O)c4n3)cc1)C(=O)O)[C@@]1(O)[C@H]2OC(=O)[C@@]1(C)O (some centres unmarked) [JQ-FT]
detection of the conjugate in cell culture media and cell lysate [1]: not detected in either cell culture media (24 h treatment) or cell lysate
furin-processed transmembrane NOTCH1 subunit (TM-N1) level (NOTCH1 [2]; T-ALL cell lines with HD mutations, Thap-OH at 1 μM): loss of trans-membrane NOTCH; also recorded: decrement of transmembrane NOTCH1
ICN1 level (NOTCH1 [2]; T-ALL cell lines): Loss of ICN1
unprocessed full-length NOTCH1 (FL-N1) level (NOTCH1 [2]; T-ALL cell lines): accumulation of full length NOTCH; also recorded: accumulation of full length NOTCH1
effect on cell surface NOTCH1 compared with thapsigargin (NOTCH1 [3]): more similar to thapsigargin at 20 uM
NOTCH1 expression on the cell surface (NOTCH1 [3]): show NOTCH loss
NOTCH1 expression on the cell surface (NOTCH1 [3]; listed as Folate-Thap): loss of Notch in a manner similar to thapsigargin
NOTCH1 target gene expression (NOTCH1 target genes): suppression of NOTCH1 target genes
rescue of loss of viability by exogenous ICN1 (T-ALL cell lines; RPMI 8402 transduced with MigR1-ICN1 vs empty vector): overexpressing an exogenous ICN1 partially rescues the observed phenotype; also recorded: attenuated the growth inhibitory effects of JQ-FT
cell growth / proliferation (T-ALL cell lines): impaired cell growth
cell growth / proliferation (T-ALL cell lines; listed as Folate-Thap): antiproliferation effect; also recorded: arrest of cell proliferation
